Set-up in all cases: species or system DBA/2 mice
Common to all, as to conditions: mouse, in vivo

The test system of assay [1] is oseltamivir-resistant K/2785 virus.
For assay [2] the test system is unchanged. This is another data set of the same source.
The test system is the same in assay [3]. This is another data set of the same source.

Several values for one entry are separate records, joined by “and”; a condition that tells them apart may be missing. Equal entries are not always repeated. Where two headings read alike, the source gives them in different places. Marks after values point to notes of the source that are not given here.

In the case of `NC(=O)c1nc(F)cnc1O` [Favipiravir, 6-fluoro-3-hydroxy-2-pyrazinecarboxamide], the “Viral titers in lungs ± SD” value in assay [1] was 6.95±0.14 log10(PFU/ml/g) and 5.75±0.19 log10(PFU/ml/g) and 7.31±0.01 log10(PFU/ml/g) and 6.88±0.12 log10(PFU/ml/g). Further, in assay [2], the “MDD ± SD” value was 10.6 ± 0.9 days and 10.7 ± 0.6 days and 9.4 ± 0.5 days; the Survival/total was 5/10 (50.0%)* and 8/10 (80.0%)*** and 3/10 (30.0%); the “Synergism (MacSynergy II)” value was 0%. In assay [3], the “MDD ± SD (mean day of death prior to 14 dpi)” value is 9.8 ± 0.8 days and 10.0 ± 0.0 days and 11 days; the Survival/total is 2/7 (28.6%) and 4/7 (57.1%) and 6/7 (85.7%)** and 7/7 (100.0%)***; the “infected mice saved from death” value was “more than 80%”.
For the compound `CCC(CC)[C@H](NC(C)=O)[C@@H]1[C@H](O)[C@@H](C(=O)O)C[C@H]1N=C(N)N` [Peramivir], the “Viral titers in lungs ± SD” value in assay [1] was 7.34±0.17 log10(PFU/ml/g) and 6.30±0.13 log10(PFU/ml/g) and 7.13±0.09 log10(PFU/ml/g) and 6.29±0.27 log10(PFU/ml/g) and 7.29±0.15 log10(PFU/ml/g) and 6.55±0.14 log10(PFU/ml/g). Moreover, in assay [2], the “MDD ± SD” value was 9.8 ± 1.5 days and 10.1 ± 1.2 days and 10.6 ± 0.9 days; the Survival/total was 0/10 (00.0%) and 2/10 (20.0%) and 5/10 (50.0%)*; the “Synergism (MacSynergy II)” value amounted to 0%. In assay [3], the “MDD ± SD (mean day of death prior to 14 dpi)” value is 10.1 ± 1.1 days and 10.2 ± 0.4 days and 10.5 ± 2.1 days and 11.0 ± 1.4 days; the Survival/total is 0/7 (0.0%) and 1/7 (14.3%) and 5/7 (71.4%)*.

Values taken from paper PMC4081560 (PLoS ONE, 2014).
